These results are taken from ChEMBL document CHEMBL3792319, “Synthesis and antitubercular activity of 1,2,4-trisubstitued piperazines” (Bioorg Med Chem Lett, 2016).

Experiment [1] has as its system Mycobacterium tuberculosis. Put plainly: Antitubercular activity against Mycobacterium tuberculosis H37Rv measured after 7 days under aerobic condition. The format is functional, organism-based. The following applies: 168 h.
In experiment [2] the test system is Mycobacterium tuberculosis. In words: Bactericidal activity against Mycobacterium tuberculosis H37Rv measured upto 21 days. The format is functional. The following applies: 504 h.
The test system of experiment [3] is Mycobacterium tuberculosis. In words: Antimicrobial activity against Mycobacterium tuberculosis H37Rv expressing bacterial luciferase measured after 10 days under hypoxia condition by LORA assay. The experiment is classed as functional. The following applies: 240 h.
Experiment [4] relates to Mycobacterium tuberculosis. Put plainly: Antitubercular activity against Mycobacterium tuberculosis H37Rv expressing bacterial luciferase infected murine J774 macrophage cells assessed as reduction in cell count at 20 uM measured after 4 days by luminescence analysis. The experiment is classed as functional.
Experiment [5] deals with Mycobacterium tuberculosis. In words: Antitubercular activity against Mycobacterium tuberculosis H37Rv measured after 5 days under aerobic condition by two-fold serial dilution method. The following applies: 120 h. The format is functional.
For experiment [6], the system named is Mycobacterium tuberculosis. In words: Antitubercular activity against Mycobacterium tuberculosis H37Rv expressing bacterial luciferase infected murine J774 macrophage cells assessed as reduction in cell count at 200 uM measured after 4 days by luminescence analysis. The experiment is classed as functional.

In brackets after ≈: the same amount, converted by molar mass.

In experiment [1], `CCC(C)[C@@H]1CN([C@H](CNC)Cc2ccccc2)CCN1CCC12CC3CC(CC(C3)C1)C2` (stereo partly drawn) displayed a concentration for half-maximal inhibition (IC50) of 20.2 µM, an IC90 of 35.5 µM and an MIC of 50 µM (≈ 22.6 µg/mL).

In experiment [1], `CNC[C@@H](Cc1ccccc1)N1CCN(CCC23CC4CC(CC(C4)C2)C3)[C@H](C(C)C)C1` displayed an IC50 of 20.7 µM, an IC90 of 37 µM and an MIC of 50 µM (≈ 21.9 µg/mL). In experiment [2], the MBC was 114 µM (≈ 49.9 µg/mL). Further, it took 52.2 µM (≈ 22.8 µg/mL) to inhibit growth in experiment [3] (MIC). The Activity in experiment [4] is 2.22 log10CFU. The same molecule gave an MIC in experiment [5] of 14 µM (≈ 6.13 µg/mL).

In experiment [1], `CNC[C@@H](Cc1ccccc1)N1CCN(CCC(c2ccccc2)c2ccccc2)CC1` came in with an IC50 of 23 µM. The molecule also had a 90% effect concentration (IC90) in experiment [1] of over 61 µM. Further, the minimum inhibitory concentration (MIC) was 52.3 µM (≈ 22.4 µg/mL) in experiment [1], over 200 µM in experiment [3] and 69 µM (≈ 29.5 µg/mL) in experiment [5]. The Activity in experiment [6] and in experiment [4] was 2.4 log10CFU in each case. Besides, in experiment [2], the MBC is 20 µM (≈ 8.55 µg/mL).

In turn, `CNC[C@@H](Cc1ccccc1)N1CCN(CCC23CC4CC(CC(C4)C2)C3)CC1` registered a half-inhibitory concentration (IC50) in experiment [1] of 38 µM. The molecule further came in with a concentration for an effect of 90% (IC90) in experiment [1] of 99 µM. Besides, the minimal inhibitory concentration (MIC) in experiment [1] stood at 61.2 µM (≈ 24.2 µg/mL); in experiment [3], 74 µM (≈ 29.3 µg/mL); in experiment [5], 36 µM (≈ 14.2 µg/mL). The Activity is 2.7 log10CFU in experiment [6] and 0 log10CFU in experiment [4]. The molecule also came in with an MBC in experiment [2] of 100 µM (≈ 39.6 µg/mL).

In experiment [1], `CCCC[C@H](CNC)N1CCN(CCC23CC4CC(CC(C4)C2)C3)[C@H](C(C)CC)C1` (stereo partly drawn) yielded a half-maximal inhibitory concentration (IC50) of 21.2 µM, an IC90 of 33.7 µM and a minimal inhibitory concentration (MIC) of 50 µM (≈ 20.9 µg/mL).

`CCC(C)[C@H](CNC)N1CCN(CCC23CC4CC(CC(C4)C2)C3)[C@H](CO)C1` (stereo partly drawn): in experiment [1], the IC90 is over 100 µM and the minimal inhibitory concentration (MIC) is over 100 µM.

In experiment [1], `CC[C@H](C)[C@@H]1CN([C@@H](CNC)Cc2ccccc2)CCN1CC(C)(C)C` gave an IC50 of 190 µM, a concentration for an effect of 90% (IC90) of over 200 µM and a minimal inhibitory concentration (MIC) of over 200 µM.

In experiment [1], `CCC(C)[C@@H](CNC)N1CCN(CCc2ccc(C)cc2)CC1` (stereo partly drawn) yielded a concentration for half-maximal inhibition (IC50) of 37 µM, an IC90 of 110 µM and an MIC of 93.9 µM (≈ 29.8 µg/mL).

For the molecule `CCC(C)[C@@H]1CN([C@@H](CNC)Cc2ccccc2)CCN1CCC12CC3CC(CC(C3)C1)C2` (stereo partly drawn), in experiment [1], the IC50 was 17 µM. In experiment [1], this molecule registered a 90% effect concentration (IC90) of 38 µM. Besides, the MIC in experiment [1] was 37.7 µM (≈ 17 µg/mL); in experiment [3], 9.8 µM (≈ 4.43 µg/mL); in experiment [5] it was 41 µM (≈ 18.5 µg/mL). Also, the Activity in experiment [6] and in experiment [4] was 2.4 log10CFU in each case. Also, the MBC in experiment [2] is 5 µM (≈ 2.26 µg/mL).

Consider `CCCC[C@H](CNC)N1CCN(CCC23CC4CC(CC(C4)C2)C3)[C@H](C(C)C)C1`, for which, in experiment [1], the IC50 worked out at 47.5 µM, the IC90 came to 65.5 µM and the lowest concentration to inhibit growth (MIC) was 100 µM (≈ 40.4 µg/mL).

As for `CNC[C@@H](Cc1ccccc1)N1CCN(CC2CCC(C)CC2)[C@H](C(C)C)C1` (stereo partly drawn), in experiment [1], the IC90 was 85.5 µM and the minimum inhibitory concentration (MIC) was over 100 µM.

With `CCC(C)[C@H](CNC)N1CCN(CCc2c[nH]c3ccccc23)[C@H](C(C)C)C1` (stereo partly drawn), in experiment [1], the IC90 was over 100 µM and the minimum inhibitory concentration (MIC) was over 100 µM.

Consider `CCCC[C@@H](CNC)N1CCN(CCc2c[nH]c3ccccc23)[C@H](C(C)C)C1`, for which, in experiment [1], it took 85.3 µM to reach the 90% level (IC90) and the minimal inhibitory concentration (MIC) was over 100 µM.

Take `CNC[C@@H](Cc1ccccc1)N1CCN(CCC23CC4CC(CC(C4)C2)C3)[C@H](CO)C1`: in experiment [1], it took 75.6 µM to reach the 90% level (IC90) and the minimal inhibitory concentration (MIC) was over 100 µM.

In experiment [1], `CCCC[C@@H](CNC)N1CCN(CCC23CC4CC(CC(C4)C2)C3)[C@H](CO)C1` gave an IC90 of 70.6 µM and an MIC of over 100 µM.

In experiment [1], `CCCC[C@@H](CNC)N1CCN(CCC23CC4CC(CC(C4)C2)C3)[C@H](C(C)C)C1` had an IC50 of 51.8 µM, a 90% effect concentration (IC90) of 61.4 µM and a minimum inhibitory concentration (MIC) of 100 µM (≈ 40.4 µg/mL).

Regarding `CCC(C)[C@H](CNC)N1CCN(CCC23CC4CC(CC(C4)C2)C3)[C@H](C(C)C)C1` (stereo partly drawn), in experiment [1], the IC50 worked out at 37.4 µM, it took 99.5 µM to reach the 90% level (IC90) and the minimum inhibitory concentration (MIC) was found to be 100 µM (≈ 40.4 µg/mL).

For `CCCC[C@@H](CNC)N1CCN(CCC23CC4CC(CC(C4)C2)C3)[C@H](C(C)CC)C1` (stereo partly drawn), in experiment [1], the IC50 turned out to be 29.6 µM, the IC90 was found to be 54.2 µM and inhibition of growth (MIC) required 100 µM (≈ 41.8 µg/mL).

In experiment [1], `CNC[C@@H](CO)N1CCN(CCC(c2ccccc2)c2ccccc2)[C@H](CC2CCCCC2)C1` showed an IC50 of 22 µM, a 90% effect concentration (IC90) of 50 µM and an MIC of 48.4 µM (≈ 22.4 µg/mL).

With `CNC[C@H](Cc1ccccc1)N1CCN(CCC23CC4CC(CC(C4)C2)C3)[C@H](CO)C1`, in experiment [1], the half-maximal inhibitory concentration (IC50) came out at 54.6 µM, the IC90 was 66.1 µM and the minimum inhibitory concentration (MIC) was 100 µM (≈ 42.6 µg/mL).

In experiment [1], `CNCCN1CCN(CCC23CC4CC(CC(C4)C2)C3)[C@H](C(C)C)C1` came in with a concentration for an effect of 90% (IC90) of over 100 µM and a minimal inhibitory concentration (MIC) of over 100 µM.

In experiment [1], `CNC[C@@H](CO)N1CCN(CCc2ccc(C)cc2)[C@H](CC2CCCCC2)C1` had an IC50 of 67 µM, a 90% effect concentration (IC90) of 160 µM and an MIC of 200 µM (≈ 77.5 µg/mL).

In experiment [1], `CNC[C@H](Cc1ccccc1)N1CCN(CCc2c[nH]c3ccccc23)[C@H](C(C)C)C1` showed an IC90 of 88.1 µM and an MIC of over 100 µM.

As for `CNC[C@@H](CC(C)C)N1CCN(CCc2ccc(C)cc2)CC1`, in experiment [1], the concentration for half-maximal inhibition (IC50) is over 200 µM, the IC90 is over 200 µM and the minimum inhibitory concentration (MIC) was over 200 µM.

As usually defined, the IC50 is the midpoint of a concentration-inhibition curve. The IC90 is the point of the concentration-response curve where the effect stands at 90%. Read a low IC90 as greater potency. What is called MIC is the lowest concentration that inhibits growth of the organism. A lower MIC goes with inhibition by little substance. Usually MBC stands for the lowest tested concentration that kills the bacteria rather than only halting them.
